From patent publication US7304168B2, “Photo-caged fluorescent molecules” (Board of Regents, University of Texas System, priority 2003, dated 2007)
Values belong to the compound of their own block, whether it stands above or below them.

How the values were obtained:
[1] = Two photon uncaging action cross section at 740 nm with Bhc-OAc as reference; format: physicochemical; conditions: for photolysis after 20 minutes of continuous illumination: 345 mW exiting the cuvette; for sensitivity to two photon uncaging relative to 2a: average power 590 mW exiting the cuvette
Protocol: To calculate δu, 6-bromo-7-hydroxycoumarin-4-ylmethyl acetate (Bhc-OAc) was used as a reference compound (Furuta, 1999; Fedoryak, 2002). The compounds tested included Compound 2a from FIG. 3 and a compound 2a′ having the structure:
Bhc-OAc, Compound 2a, and Compound 2a′ in microcuvettes were illuminated using focused infrared light ([…]) from a femtosecond-pulsed and mode locked Ti-sapphire laser. The two photon uncaging action cross section was determined using the equation (Furuta, 1999):
[formula] • where Np is the number of product molecules formed per unit time, <I0^2(t)> is the mean squared light intensity, S(r) is a unitless spatial distribution function, and the integral is over the volume of the microcuvet, and Cs is the substrate concentration. If caged compounds are photolyzed under the identical setting with the same two photon laser power, then the term <I0^2(t)>∫S^2(r)dV should be about the same for different cages. Thus, δu^a of cage “a” can be determined by comparing its rate of product formation (Np^a) with that of reference cage “b” with known δu^b according to the equation: […]
The formation of coumarins after two photon photolysis of Compound 2a and […] was quantified similarly as in the one photon uncaging experiments by measuring the fluorescence enhancement. The photolysis of Bhc-OAc was quantified by HPLC analysis as described (Furuta, 1999; Fedoryak, 2002).
Two photon photolysis was carried out using a procedure similar to the one first described by Furuta et al (Furuta, 1999). Samples in 100 mM Mops buffer (pH 7.3) were transferred to a microcuvette (Hellma 105.251-QS). The filling volume of the cuvette was […]. The laser beam from a fs-pulsed and mode-locked Ti-Sapphire laser (Mira 900-F pumped by a Verdi, Coherent, Santa Clara, Calif.) was focused into the center of the cuvette with a focusing lens (01 LPX 029/077, focal length 25 mm, Melles-Griot, Carlsbad, Calif.). After irradiation with 740 nm light, samples were collected and the formation of the products was quantified. The formation of coumarins from caged precursors 2a or 2a′ (initial concentration 10 μM) was measured by fluorescence spectroscopy. The photolysis of Bhc-OAc (initial concentration 100 μM) was followed by HPLC. Two-photon uncaging cross sections (δu) were calculated from equation (2) and the reported δu of 0.72 GM for Bhc-OAc at 345 mW laser power exiting the cuvette (Fedoryak, 2002).

[2] = 740 nm, 345 mW laser power exiting the cuvette; cited from earlier work
[3] = at 730 nm; cited from earlier work
human fibroblasts = human fibroblasts loaded with Fluo-3/AM
Source text: Human fibroblasts were loaded with the calcium indicator Fluo-3/AM (Molecular Probes), and a caged and cell permeable coumarin derivative (compound 8, FIG. 6). […] Optical filters were used (coumarin excitation, 440AF21 (Omega Optical); Fluo-3 excitation, 490/20; UV uncaging 330WB80; dichroic, 61010bs; emission filter, 84101 special; all of Chroma Technology unless stated otherwise).
Fluo-3 measures cell calcium concentrations.

[4] = tested on: gap junction transfers in coupled human fibroblast cells; assay: Inhibition of junctional coumarin (HCCC2) transfer after localized uncaging; format: cell-based; conditions: human fibroblasts loaded with NPE-HCCC2-AM (1 μM); added prior to the third uncaging
Protocol: Coupled human fibroblast cells were loaded with NPE-HCCC2-AM (1 μM) for 40 minutes in Hanks Balanced Saline (HBS with 10 mM Hepes, 5.5 mM glucose, pH 7.3), then washed and incubated for another 15 minutes before imaging on an inverted fluorescence microscope. The time course of fluorescent intensities of HCCC2 after it was locally uncaged in the “donor” cells is shown in FIG. 10 (FHCCC2, arbitrary units, 425±5 nm excitation, 460±10 nm emission). A field diaphragm was placed in the excitation light path inside the microscope. The iris of the field diaphragm was reduced to a minimum to limit the area of UV illumination (360±20 nm) to a fraction of a cell during localized uncagings. Digital fluorescence images were taken every 15 seconds. The rates of HCCC2 diffusion are indicated under each episode of transfer. α-Glycyrrhetinic (“αG”) was added to the cells prior to the third uncaging. αG is a classical inhibitor of gap junction transfers (Rozental, et al., 2001).

photolysis after 20 minutes of continuous illumination [1]: 10.6%
Structure (SMILES): CC(=O)OCc1cc(=O)oc2cc(O)c(Br)cc12 [Bhc-OAc, 6-bromo-7-hydroxycoumarin-4-ylmethyl acetate]
sensitivity to two photon uncaging relative to 2a [1]: about two times more sensitive to two photon uncaging than 2a | reported δu, two photon uncaging cross section [2]: 0.72 GM

Structure (SMILES): COc1ccc([N+](=O)[O-])c2c1CCN2C(=O)CC[C@H](N)C(=O)O [MNI caged glutamate]
δu, two photon uncaging cross section [3]: 0.06 GM

Structure (SMILES): NCCc1c[nH]cn1 [histamine]
intracellular calcium (Fluo-3 channel) (human fibroblasts): induced intracellular calcium increase

Structure (SMILES): CC1(C)[C@@H](O)CC[C@]2(C)[C@H]3C(=O)C=C4[C@H]5C[C@@](C)(C(=O)O)CC[C@]5(C)CC[C@@]4(C)[C@]3(C)CC[C@@H]12 [αG, α-glycyrrhetinic acid]
inhibition of coumarin transfer through gap junctions [4]: susceptible to inhibition by αG

photolysis after 20 minutes of continuous illumination [1]: 10% | δu, two photon uncaging action cross section ([1]; estimated against Bhc-OAc (0.72 GM)): 0.68 GM
Structure (SMILES): COC(=O)CC[C@@H](NC(=O)c1cc2ccc(OC(C)c3ccccc3[N+](=O)[O-])cc2oc1=O)C(=O)OC (stereo partly drawn) [Compound 2a′]
sensitivity to two photon uncaging relative to 2a [1]: about two times more sensitive to two photon uncaging than 2a
